Laboratory results: patent publication US6743640B2, “Fluorescent polymer-QTL approach to biosensing” (priority 2000, dated 2004)

Biological target: avidin (Gallus gallus, UniProt P02701)
Assay: Competitive avidin-biotin fluorescence quench assay with 263 PRU cyanine polymer
Description: A preferred embodiment for using a cyanine polymer/QTL approach consists of a competitive assay based on selective quenching of a cyanine polymer solution. For example, a 263 polymer repeat unit (PRU) cyanine polymer can be conveniently used in a fluorescence quench competitive bioassay. A competitive assay involving the avidin-biotin receptor-ligand system was conducted as follows: 500 μl of 0.1 μM of this polymer was added to the filtrate (lower) chamber of each of 3 separate Microcon YM-30 centrifugal filter vials. In each of these devices the filtrate chamber is separated from the retentate (upper) chamber by a 30 kilodalton (KD) nominal molecular weight cutoff (NMWCO) cellulose membrane. This membrane is impermeable to the 66 KD protein avidin but allows the biotin-anthraquinone conjugate to pass. […] Since each avidin has four biotin binding sites, this sub-stoichiometric ratio ensures full binding of all QTL conjugate to avidin. The three retentate chambers were charged with a.) 0.5 μM D-Biotin, b. and c.) 0.8 μM AQS-biotin conjugate complexed with 1.0 μM avidin. The 3 tubes were then each sealed and incubated for 10 minutes, after which time 0.5 μM D-Biotin was added to vial c. […] The fluorescence emission of all three filtrates was then measured at 20.0° C.+/−0.1° C. on a SPEX FluoroMax-3. […]

Sequence of avidin (P02701 25-152, species assumed): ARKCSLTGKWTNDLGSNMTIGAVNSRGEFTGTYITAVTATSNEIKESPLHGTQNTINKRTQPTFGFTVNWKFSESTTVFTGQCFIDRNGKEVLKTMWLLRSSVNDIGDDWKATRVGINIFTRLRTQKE

O=C(O)CCCC[C@@H]1SC[C@@H]2NC(=O)N[C@@H]21 [biotin, D-Biotin]
quenching of cyanine polymer after adding competitor to QTL-avidin solution (0.8 μM AQS-biotin conjugate with 1.0 μM avidin): quenching occurred | quenching of cyanine polymer in filtrate, sample alone (sample alone in retentate chamber, 30 KD membrane, 263 PRU polymer 0.1 μM): no quenching
